Publication PMC6572064, “Discovery of 2-(1-(3-(4-Chloroxyphenyl)-3-oxo- propyl)pyrrolidine-3-yl)-1H-benzo[d]imidazole-4-carboxamide: A Potent Poly(ADP-ribose) Polymerase (PARP) Inhibitor for Treatment of Cancer” (Molecules, 2019)
Read-outs that look alike come from different tables or passages of the source. Each block holds one compound with its values, some of them ahead of it.

Assays:
PARP-1 = target: T1, PARP-1 (Homo sapiens, UniProt P09874); assay: PARP-1 inhibition assay (PARP-1 Chemiluminescent Assay Kit, BPS Bioscience); format: biochemical
T1 construct: purchased BPS Bioscience 80569
Method: (§1) The PARP-1 and PARP-2 inhibition assays were performed in outsourcing, by a CRO company, Shanghai Medicilon Inc. (Shanghai, China). […] Briefly, PARP-1 or PARP-2 biotinylated substrate was incubated with compounds or solvent control at varying concentrations and an assay buffer containing the PARP-1 or PARP-2 enzyme.

PARP-2 = target: T2, PARP-2 (Homo sapiens, UniProt Q9UGN5); assay: PARP-2 inhibition assay (PARP-2 Chemiluminescent Assay Kit, BPS Bioscience); format: biochemical
T2 construct: purchased BPS Bioscience 80552
Method: as §1

[1] = system: MDA-MB-436 (a BRCA-1-mutated breast cancer cell line); assay: Cell proliferation assay, three-day, CellTiter-Glo, MDA-MB-436; format: cell-based; details: Homo sapiens; for inhibition at 0.00508 µM: MDA-MB-436, MDA-MB-436, Conc. 0.00508 uM; for inhibition at 0.0152 µM: MDA-MB-436, MDA-MB-436, Conc. 0.0152 uM; for inhibition at 0.0457 µM: MDA-MB-436, MDA-MB-436, Conc. 0.0457 uM; for inhibition at 0.41 µM: MDA-MB-436, MDA-MB-436, Conc. 0.41 uM; for inhibition at 1.23 µM: MDA-MB-436, MDA-MB-436, Conc. 1.23 uM; for inhibition at 3.7 µM: MDA-MB-436, MDA-MB-436, Conc. 3.70 uM; for inhibition at 11.11 µM: MDA-MB-436, MDA-MB-436, Conc. 11.11 uM; for inhibition at 33.33 µM: MDA-MB-436, MDA-MB-436, Conc. 33.33 uM; for inhibition at 100 µM: MDA-MB-436, MDA-MB-436, Conc. 100.00 uM; for IC50: MDA-MB-436, 72 h, CellTiter-Glo, read-out: MDA-MB-436 IC50
Summary of the method: (§2)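 Cells seeded overnight in 384-well plates, then exposed to compounds (DMSO stock diluted in medium) for 72 h at 37 °C, 5% CO2. Viability read as CellTiter-Glo luminescence after 60 min at room temperature.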

[2] = system: CAPAN-1 (a BRCA-2-mutated pancreatic cancer cell line); assay: Cell proliferation assay, three-day, CellTiter-Glo, CAPAN-1; format: cell-based; details: for IC50 / inhibition at 0.00508 µM / inhibition at 0.0152 µM / inhibition at 0.0457 µM / inhibition at […] / inhibition at 0.41 µM / inhibition at 1.23 µM / inhibition at 3.7 µM / inhibition at 11.11 µM / inhibition at 33.33 µM / inhibition at 100 µM: Homo sapiens; for IC50: CAPAN-1, read-out: CAPAN-1 IC50; for inhibition at 0.00508 µM: CAPAN-1, Conc. 0.00508 uM; for inhibition at 0.0152 µM: CAPAN-1, Conc. 0.0152 uM; for inhibition at 0.0457 µM: CAPAN-1, Conc. 0.0457 uM; for inhibition at […]: CAPAN-1, Conc. 0.14 uM; for inhibition at 0.41 µM: CAPAN-1, Conc. 0.41 uM; for inhibition at 1.23 µM: CAPAN-1, Conc. 1.23 uM; for inhibition at 3.7 µM: CAPAN-1, Conc. 3.70 uM; for inhibition at 11.11 µM: CAPAN-1, Conc. 11.11 uM; for inhibition at 33.33 µM: CAPAN-1, Conc. 33.33 uM; for inhibition at 100 µM: CAPAN-1, Conc. 100.00 uM
Summary of the method: as §2

T1 sequence (P09874 whole entry): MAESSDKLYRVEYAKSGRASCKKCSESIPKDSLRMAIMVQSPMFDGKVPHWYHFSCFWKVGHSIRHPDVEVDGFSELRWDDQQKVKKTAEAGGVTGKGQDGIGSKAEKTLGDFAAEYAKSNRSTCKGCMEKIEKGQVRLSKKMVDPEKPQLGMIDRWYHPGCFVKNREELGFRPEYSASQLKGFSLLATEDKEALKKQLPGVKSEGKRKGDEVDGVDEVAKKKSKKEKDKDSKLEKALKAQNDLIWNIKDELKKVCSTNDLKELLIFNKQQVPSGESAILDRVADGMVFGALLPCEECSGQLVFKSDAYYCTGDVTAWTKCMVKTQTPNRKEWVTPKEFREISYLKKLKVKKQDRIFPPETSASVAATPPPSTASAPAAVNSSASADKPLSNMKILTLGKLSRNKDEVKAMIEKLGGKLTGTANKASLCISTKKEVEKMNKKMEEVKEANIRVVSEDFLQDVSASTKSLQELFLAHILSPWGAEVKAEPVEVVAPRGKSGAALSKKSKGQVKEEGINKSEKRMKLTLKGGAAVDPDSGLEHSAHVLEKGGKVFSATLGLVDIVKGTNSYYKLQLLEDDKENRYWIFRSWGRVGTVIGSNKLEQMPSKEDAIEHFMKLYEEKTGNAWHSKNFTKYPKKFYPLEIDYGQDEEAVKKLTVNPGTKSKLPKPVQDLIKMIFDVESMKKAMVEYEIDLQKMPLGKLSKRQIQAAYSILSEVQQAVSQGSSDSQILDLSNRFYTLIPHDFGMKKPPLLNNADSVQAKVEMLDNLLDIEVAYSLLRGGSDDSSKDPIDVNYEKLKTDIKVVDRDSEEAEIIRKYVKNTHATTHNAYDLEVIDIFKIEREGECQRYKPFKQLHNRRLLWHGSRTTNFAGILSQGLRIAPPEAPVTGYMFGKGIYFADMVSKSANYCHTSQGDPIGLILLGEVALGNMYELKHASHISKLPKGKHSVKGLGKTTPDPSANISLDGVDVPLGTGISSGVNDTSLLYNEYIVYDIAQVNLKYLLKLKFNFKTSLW
T2 sequence (Q9UGN5 whole entry): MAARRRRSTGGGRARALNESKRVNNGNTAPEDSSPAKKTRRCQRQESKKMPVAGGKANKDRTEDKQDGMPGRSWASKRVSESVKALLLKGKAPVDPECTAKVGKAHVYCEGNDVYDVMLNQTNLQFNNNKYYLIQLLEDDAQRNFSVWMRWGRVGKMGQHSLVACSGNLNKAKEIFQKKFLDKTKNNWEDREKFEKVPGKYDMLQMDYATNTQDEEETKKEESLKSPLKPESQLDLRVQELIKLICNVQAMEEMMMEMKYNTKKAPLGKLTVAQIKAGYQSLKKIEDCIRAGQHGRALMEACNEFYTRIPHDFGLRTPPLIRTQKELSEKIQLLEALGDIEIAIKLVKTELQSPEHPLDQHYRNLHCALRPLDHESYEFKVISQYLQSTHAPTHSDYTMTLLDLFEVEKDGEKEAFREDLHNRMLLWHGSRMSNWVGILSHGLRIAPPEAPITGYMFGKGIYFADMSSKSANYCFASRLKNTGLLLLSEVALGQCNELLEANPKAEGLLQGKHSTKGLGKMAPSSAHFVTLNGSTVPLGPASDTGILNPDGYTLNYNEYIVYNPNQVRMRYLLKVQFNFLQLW

- inhibition at 0.01 µM (PARP-1; 10 nM compound, supplement sheet, read-out: 10 nM inhibition% PAPR-1): 38.4%
- inhibition at 0.01 µM (PARP-1; 10 nM compound, read-out: PARP-1 Inhibition % (10 nM)): 38.4%
- IC50 (PARP-1; read-out: PARP-1 IC50): 11.1 nM
- inhibition at 0.01 µM (PARP-2; 10 nM compound, supplement sheet, read-out: 10 nM inhibition% PAPR-2): 66.2%
- inhibition at 0.01 µM (PARP-2; 10 nM compound, read-out: PARP-2 Inhibition % (10 nM)): 66.2%
- IC50 (PARP-2; read-out: PARP-2 IC50): 5.7 nM
- IC50 (PARP-2; supplement sheet, read-out: IC50 PAPR-2): 5.67 nM
- IC50 [1]: > 100000 nM
- IC50 ([2]; 72 h, CellTiter-Glo): > 100000 nM
SMILES: NC(=O)c1cccc2[nH]c(C3CCN(CCNC(=O)c4ccccc4)C3)nc12 (stereo not drawn) [Compound 5co, 2-(1-(2-Benzamidoethyl)pyrrolidin-3-yl)-1H-benzo[d]imidazole-4-carboxamide]
- inhibition at 0.00508 µM ([1]; replicate 1, read-out: Inh % 1): 0.116%
- inhibition at 0.00508 µM ([1]; replicate 2, read-out: Inh % 2): -6.8%
- inhibition at 0.0152 µM ([1]; replicate 1, read-out: Inh % 1): 3.3%
- inhibition at 0.0152 µM ([1]; replicate 2, read-out: Inh % 2): -2.8%
- inhibition at 0.0457 µM ([1]; replicate 1, read-out: Inh % 1): -7.2%
- inhibition at 0.0457 µM ([1]; replicate 2, read-out: Inh % 2): -12.8%
- inhibition at 0.41 µM ([1]; replicate 1, read-out: Inh % 1): -3.1%
- inhibition at 0.41 µM ([1]; replicate 2, read-out: Inh % 2): -1.7%
- inhibition at 1.23 µM ([1]; replicate 1, read-out: Inh % 1): 5.2%
- inhibition at 1.23 µM ([1]; replicate 2, read-out: Inh % 2): -9.2%
- inhibition at 3.7 µM ([1]; replicate 1, read-out: Inh % 1): -2%
- inhibition at 3.7 µM ([1]; replicate 2, read-out: Inh % 2): -0.8%
- inhibition at 11.11 µM ([1]; replicate 1, read-out: Inh % 1): 2.4%
- inhibition at 11.11 µM ([1]; replicate 2, read-out: Inh % 2): -2.7%
- inhibition at 33.33 µM ([1]; replicate 1, read-out: Inh % 1): 15.5%
- inhibition at 33.33 µM ([1]; replicate 2, read-out: Inh % 2): 10.6%
- inhibition at 100 µM ([1]; replicate 1, read-out: Inh % 1): 25.7%
- inhibition at 100 µM ([1]; replicate 2, read-out: Inh % 2): 18.3%
- inhibition at 0.00508 µM ([2]; replicate 1, read-out: Inh % 1): -4.9%
- inhibition at 0.00508 µM ([2]; replicate 2, read-out: Inh % 2): -7.9%
- inhibition at 0.0152 µM ([2]; replicate 1, read-out: Inh % 1): 7.4%
- inhibition at 0.0152 µM ([2]; replicate 2, read-out: Inh % 2): -1.7%
- inhibition at 0.0457 µM ([2]; replicate 1, read-out: Inh % 1): 10.8%
- inhibition at 0.0457 µM ([2]; replicate 2, read-out: Inh % 2): 10.6%
- inhibition at […] ([2]; replicate 1, read-out: Inh % 1): 5.7%
- inhibition at […] ([2]; replicate 2, read-out: Inh % 2): 0.8%
- inhibition at 0.41 µM ([2]; replicate 1, read-out: Inh % 1): 7.1%
- inhibition at 0.41 µM ([2]; replicate 2, read-out: Inh % 2): 6.9%
- inhibition at 1.23 µM ([2]; replicate 1, read-out: Inh % 1): 9.2%
- inhibition at 1.23 µM ([2]; replicate 2, read-out: Inh % 2): 5%
- inhibition at 3.7 µM ([2]; replicate 1, read-out: Inh % 1): 25%
- inhibition at 3.7 µM ([2]; replicate 2, read-out: Inh % 2): 11.1%
- inhibition at 11.11 µM ([2]; replicate 1, read-out: Inh % 1): 17.9%
- inhibition at 11.11 µM ([2]; replicate 2, read-out: Inh % 2): -1.4%
- inhibition at 33.33 µM ([2]; replicate 1, read-out: Inh % 1): 16%
- inhibition at 33.33 µM ([2]; replicate 2, read-out: Inh % 2): 13.7%
- inhibition at 100 µM ([2]; replicate 1, read-out: Inh % 1): 29.2%
- inhibition at 100 µM ([2]; replicate 2, read-out: Inh % 2): 25.9%

SMILES: C[C@]1(c2nc3c(C(N)=O)cccc3[nH]2)CCCN1 [pc1, Veliparib, reference compound]
- inhibition at 0.01 µM (PARP-1; read-out: 10 nM inhibition% PAPR-1): 54.3%
- inhibition at 0.01 µM (PARP-1; read-out: PARP-1 Inhibition % (10 nM)): 63.7%
- inhibition at 0.01 µM (PARP-2; read-out: 10 nM inhibition% PAPR-2): 78.3%
- inhibition at 0.01 µM (PARP-2; read-out: PARP-2 Inhibition % (10 nM)): 78.3%
- inhibition at 0.00508 µM ([1]; replicate 1, read-out: Inh % 1): 0.064%
- inhibition at 0.00508 µM ([1]; replicate 2, read-out: Inh % 2): -7.5%
- inhibition at 0.0152 µM ([1]; replicate 1, read-out: Inh % 1): -2.6%
- inhibition at 0.0152 µM ([1]; replicate 2, read-out: Inh % 2): -6.6%
- inhibition at 0.0457 µM ([1]; replicate 1, read-out: Inh % 1): -7.5%
- inhibition at 0.0457 µM ([1]; replicate 2, read-out: Inh % 2): -6.4%
- inhibition at 0.41 µM ([1]; replicate 1, read-out: Inh % 1): -3.2%
- inhibition at 0.41 µM ([1]; replicate 2, read-out: Inh % 2): -9.9%
- inhibition at 1.23 µM ([1]; replicate 1, read-out: Inh % 1): -5.4%
- inhibition at 1.23 µM ([1]; replicate 2, read-out: Inh % 2): -2.1%
- inhibition at 3.7 µM ([1]; replicate 1, read-out: Inh % 1): -2.1%
- inhibition at 3.7 µM ([1]; replicate 2, read-out: Inh % 2): 2.6%
- inhibition at 11.11 µM ([1]; replicate 1, read-out: Inh % 1): 3.2%
- inhibition at 11.11 µM ([1]; replicate 2, read-out: Inh % 2): 2.2%
- inhibition at 33.33 µM ([1]; replicate 1, read-out: Inh % 1): 11.6%
- inhibition at 33.33 µM ([1]; replicate 2, read-out: Inh % 2): 7.4%
- inhibition at 100 µM ([1]; replicate 1, read-out: Inh % 1): 34.3%
- inhibition at 100 µM ([1]; replicate 2, read-out: Inh % 2): 20.3%
- IC50 [1]: > 100000 nM
- CAPAN-1 IC50 (μM) ([2]; 72 h, CellTiter-Glo): low potency
- LogIC50 ([2]; CAPAN-1, curve-fit output, concentration axis Log (uM)): 2.067
- IC50 ([2]; 72 h, CellTiter-Glo): > 100000 nM
- inhibition at 0.00508 µM ([2]; replicate 1, read-out: Inh % 1): -10.6%
- inhibition at 0.00508 µM ([2]; replicate 2, read-out: Inh % 2): 3.8%
- inhibition at 0.0152 µM ([2]; replicate 1, read-out: Inh % 1): -2.1%
- inhibition at 0.0152 µM ([2]; replicate 2, read-out: Inh % 2): -6.9%
- inhibition at 0.0457 µM ([2]; replicate 1, read-out: Inh % 1): -0.346%
- inhibition at 0.0457 µM ([2]; replicate 2, read-out: Inh % 2): 3%
- inhibition at […] ([2]; replicate 1, read-out: Inh % 1): 9.5%
- inhibition at […] ([2]; replicate 2, read-out: Inh % 2): 7.1%
- inhibition at 0.41 µM ([2]; replicate 1, read-out: Inh % 1): 7.8%
- inhibition at 0.41 µM ([2]; replicate 2, read-out: Inh % 2): -1.8%
- inhibition at 1.23 µM ([2]; replicate 1, read-out: Inh % 1): -10.7%
- inhibition at 1.23 µM ([2]; replicate 2, read-out: Inh % 2): -7.2%
- inhibition at 3.7 µM ([2]; replicate 1, read-out: Inh % 1): -17.8%
- inhibition at 3.7 µM ([2]; replicate 2, read-out: Inh % 2): -16.7%
- inhibition at 11.11 µM ([2]; replicate 1, read-out: Inh % 1): 5%
- inhibition at 11.11 µM ([2]; replicate 2, read-out: Inh % 2): 7.2%
- inhibition at 33.33 µM ([2]; replicate 1, read-out: Inh % 1): 12.5%
- inhibition at 33.33 µM ([2]; replicate 2, read-out: Inh % 2): 11.9%
- inhibition at 100 µM ([2]; replicate 1, read-out: Inh % 1): 43.2%
- inhibition at 100 µM ([2]; replicate 2, read-out: Inh % 2): 42.4%
